Results as given in ChEMBL document CHEMBL3507680, “University of Dundee, Gates Library screen for HepG2 cell viability”.

Test: Human HepG2 cell viability assay in 384 well format
Type: toxicity, cell-based
Set-up: dose 125 nL, time 70.5 hour; concentration not given beside the values
Conditions: HepG2 cells, read-out: Inhibition

Structure (SMILES) | cytotoxicity at 70.5 h [%]
CCCc1nc(CN2CCCC(c3noc(C4CC4)n3)C2)no1 (stereo unspecified) | -4.77
O=C(c1c[nH]cn1)N1CCC(n2cc(-c3ccsc3)nn2)CC1 | 18
Cc1noc(C)c1CNC(=O)N1CCC(Cc2cnn(C)c2)C1 (stereo unspecified) | -3.98
CCOc1cc2c(cc1C(=O)O)CCC2 | 11.4
Cc1cc(C)n(CC2CN(Cc3nnc(C)o3)CCO2)n1 (stereo unspecified) | -3.59
CC[C@@H]1N(Cc2ccc(C)o2)CCC[C@]12CCC(=O)N2CCOC | 16.8
CN(CC1Cc2ccccc2CN1C)C(=O)Cc1cccs1 (stereo unspecified) | -6.46
O=C(O)CCc1cc2n(n1)CCCN(C(=O)c1ccc(F)cc1F)C2 | -0.277
CCn1c(N)nc2cc(C(=O)N3Cc4ccccc4C3)cnc21 | -4.1
CCn1ccnc1CNC1CC(=O)N(CCc2cccc(Cl)c2)C1 (stereo unspecified) | -2.81
Cc1ccccc1-c1cncc(C2CCN(CC(=O)N(C)C)CC2)n1 | -3.4
Cc1ccc(-c2ccnc(NC(C)c3n[nH]c(C)n3)n2)c(C)n1 (stereo unspecified) | -9.42
CCn1nnnc1-c1cccc(NC(N)=O)c1 | -5.79
CNC(=O)Cn1cc(Nc2cccc(F)c2C#N)cn1 | -32.8
CC1N(c2cnn(C)c2)C(=O)COC12CCN(c1ccccn1)CC2 (stereo unspecified) | -2.76
CN(Cc1cc(C2CC2)on1)C(=O)C(c1cccnc1)N1CCCC1 (stereo unspecified) | -1.03
CC(C)N1CCOC(CC(=O)N2CCCN(c3ccc(F)cc3)CC2)C1 (stereo unspecified) | -3.4
CC(=O)NCC(=O)N1CCCC2(CCC(=O)N(CCc3c[nH]cn3)C2)C1 (stereo unspecified) | 10.1
CS(=O)(=O)N[C@H]1CN(C(=O)c2cscn2)[C@@H]2CCCO[C@H]12 | -8.41
COc1ccc(SC(C)C(=O)N2CCC(C(N)=O)CC2)cc1 (stereo unspecified) | -14.1
N#Cc1cccc(N2CC3(CCN(C(=O)c4cccnc4)C3)CC2=O)c1 (stereo unspecified) | -0.309

Structure (SMILES) | cytotoxicity at 70.5 h [%]
COCC(Nc1nc(N(C)C)nc2c1CCNCC2)c1ccccn1 (stereo unspecified) | 4.09
CC(C)C(=O)N1CCC2(CC1)COCCN2Cc1ccc(F)cc1 | -2.33
CCC(C)c1ccc(NC(=O)C2CCN(C(=O)COC)CC2)cc1 (stereo unspecified) | -6.71
CC(=O)NCC(=O)N1Cc2cc(C#N)ccc2C1c1cnco1 (stereo unspecified) | 25.2
CC(C)N1CCCC(CN(C)c2ccc(Cn3ccnc3)cn2)C1 (stereo unspecified) | -12.6
O=C(NCC1CCCO1)c1coc(Cn2cnc3ccccc32)n1 (stereo unspecified) | -4.46
COc1cccc(OCCc2nc3c(cc2C(N)=O)CCC3)c1 | 1.85
CC(O)CN1CCC(CNCc2cccc(Cl)c2)CC1 (stereo unspecified) | 12.3
Cn1cc(CN2C[C@@H]3COC[C@]3(CNC(=O)c3ccccc3)C2)cn1 | -13.5
Cc1cccc(CN2CCN(C(=O)N(C)C)[C@@H]3CS(=O)(=O)C[C@@H]32)n1 | 2.11
Cc1ccc(CN2C[C@H]3CN(CC4CCN(C)CC4)C(=O)[C@H]3C2)s1 | -12.7
O=C(NCCNC(=O)C1CCN(CC(F)(F)F)CC1)c1ccoc1 | -4.81
CCOCC(O)CN1CCN(C(=O)c2ccc(C)nc2)CC1 (stereo unspecified) | 0.688
CS(=O)(=O)NC1CCCN(C(=O)Nc2ccccc2Cn2cccn2)C1 (stereo unspecified) | 14.4
Cc1ccc(Cl)c(C(C(=O)O)N(C)Cc2cnn(C)c2)c1 (stereo unspecified) | 5.66
CCc1nc(C2CCCN2C(=O)c2cc(C3CC3)[nH]n2)no1 (stereo unspecified) | -1.42
CC(C)C(NC(=O)Nc1ccccn1)c1cccs1 (stereo unspecified) | 28.6
CCn1ncc(C(=O)N2CCN(CC3CCCO3)CC2)c1C (stereo unspecified) | -0.538
CC(NC(=O)NCc1ccccn1)c1ccc2c(c1)CCC(=O)N2 (stereo unspecified) | -6.54
O=C1N(CCc2ccccc2)CCCC1(O)CNCc1ccc(F)cc1 (stereo unspecified) | 6.09
Cc1cnn(CCNCc2cccnc2)c1 | -1.13

Structure (SMILES) | cytotoxicity at 70.5 h [%]
CC(=O)NCc1cc2n(n1)CCN(Cc1cccc(Cl)c1F)C2 | 36.9
O=C(NCc1cccnc1)C1CC(=O)N(CC2CC2)C1 (stereo unspecified) | -6.68
CCc1nc(N)nc(N2CCCC3(CCN(C)CC3)CC2)c1C | 0.239
CC(C)OCc1nn(C)c2c1CCN(CC1CC1)C2 | -2.45
COc1cccc(COCC(=O)N2CCCC(n3cncn3)C2)c1 (stereo unspecified) | -1.04
O=C(NCCOC1CCCC1)c1ccc(-c2ccco2)[nH]c1=O | -2.19
CC(C)c1n[nH]c(C2CN(CCc3cccs3)CCO2)n1 (stereo unspecified) | -6.41
O=C(NCC1CCCO1)C1CCN(Cc2nc(C3CC3)no2)CC1 (stereo unspecified) | 3.81
c1cc(-c2noc(CN3CCn4c(nnc4C4CC4)C3)n2)co1 | -0.323
CNc1cc2c(nn1)CCN(C(=O)c1ccccc1-n1cccn1)C2 | 47.8
CN(CC(=O)N1CCN(c2ccccc2F)CC1)c1cnccn1 | -18.2
CC(C)N1C(=O)CN(CCOCCO)CC1(C)C | -1.37
CCN(C)S(=O)(=O)NCC1(c2ccccc2Br)CC1 | 4.86
Cc1cc(NCCC(=O)NC2CCCC2)nc(-c2ccncc2)n1 | 0.777
CC(C)c1nnc(N2C[C@@H](CN(C)CCO)[C@@H](CO)C2)s1 | 12.7
CN1C[C@@H](c2cccc(F)c2)[C@H]2[C@H]1CCCCCN2C(=O)C1CC1 | 2.38
CCC(=O)NCCNC(=O)c1nn(C)c(C)c1Cl | -11.9
O=C(c1ccc(Oc2cccnc2)cc1)N1CCN(CCO)CC1 | -18.5
CN(C)CC1(O)CCCN(c2noc(-c3ccccc3)n2)CC1 (stereo unspecified) | 6.79
CN(Cc1ccsc1)C(=O)CS(=O)(=O)Cc1ccc(Cl)c(Cl)c1 | -9.28
CCS(=O)(=O)N1C[C@H]2CN(Cc3cccnc3)C(=O)[C@H]2C1 | 16.7

Structure (SMILES) | cytotoxicity at 70.5 h [%]
CCNCCC(Cc1ccccc1)c1ccco1 (stereo unspecified) | -8.72
CCn1nc(C)c(CN(CCOC)C(=O)c2cnc(C)nc2O)c1C | -6.8
COc1c(C2CCCN2C(=O)CCNc2ncccn2)c(C)nn1C (stereo unspecified) | -10.7
O=C(O)c1cn(CC2CCCN(c3nc4ccccc4s3)C2)nn1 (stereo unspecified) | 20.3
Cc1cc(C)nc(Nc2nccnc2C2CCCN(CCO)C2)n1 (stereo unspecified) | -3.54
COCCNC(=O)N1CCSC2(CCCCC2)C1 | -4.21
Cc1nonc1CN(C)Cc1nc(-c2cccc(F)c2F)oc1C | -7.8
COc1cc(F)c(S(=O)(=O)N2c3ncccc3NC(=O)C2C)cc1OC (stereo unspecified) | -5.44
O=C(CCc1cc2n(n1)CCCNC2)NCCCSC1CCCCC1 | -8.87
O=C(CC1CCCCC1)N1CCC(c2ncc3c(n2)CCNC3)CC1 | -7.09
CSc1ccccc1CC1CCCS(=O)(=O)C1 (stereo unspecified) | 3.79
N#CCCn1nc(C(F)(F)F)c2c1CCCC2 | -6.63
O=C(O)c1cc(S(=O)(=O)Nc2cc(Cl)ccc2F)cc2c1OCCO2 | 23
Cn1ccc(C(=O)N2CCC(Cc3cnc4[nH]ccc4c3)C2)n1 (stereo unspecified) | -7.96
CC(C)Cc1noc(CNc2cc3c(cc2Cl)OCCCO3)n1 | 1.94
CN(C)[C@@H]1CO[C@H](CNC(=O)CC(C)(C)C)[C@H]1O | -0.485
CCC1=N[C@@]2(CC[C@@H]3CN(S(=O)(=O)CC(C)C)C[C@@H]32)C(=O)N1CC1CC1 | 0.026
CN(C)C(=O)COc1ccccc1CN1CCOC2(CCCC2)C1 | 0.31
